Measured values as given in patent US3992535A, “4-Hydroxy-2H-naphtho[2,1-e]-1,2-thiazine-3-carboxamide-1,1-dioxides and salts thereof” (priority 1974, dated 1976).
Structures can show the parent of a compound that is named as a salt. Where two headings read alike, the source gives them in different places.

Assays:
[1] = test system: thrombocyte aggregation in the platelet-rich plasma of healthy human donors; experiment: Born test; collagen aggregation; type: cell-based; conditions: for inhibition at 0.1 µM: 10^-^7 mol/liter; for 50% diminution of aggregation: times lower concentration than compound N: vs compound N (acetylsalicylic acid)
Procedure: b. […] The rate of decline of the optical density of platelet suspensions was measured and recorded photometrically after the addition of commercial collagen. From the angle of inclination of the density curve, the rate of aggregation was estimated. The optical density was taken at the point on the curve where most light was transmitted. The amount of collagen was chosen such that an irreversible control curve was obtained. The results were expressed in terms of the optical density and represent the percentage change in light transmission (= % diminution of the aggregation) caused by the test compound compared with the untreated control.

[2] = test system: adjuvant arthritis in the rat; experiment: Adjuvant arthritis in the rat; type: in vivo; conditions: for ED50: po, 504 h, per os, once a day for 20 days, paw volume on 21st day, read-out: Adjuvant arthritis in the rat ED50 per os (average value of primary and secondary reaction); for activity against adjuvant arthritis compared with phenylbutazone (D) (in words): vs phenylbutazone (D)
Procedure: d. Adjuvant arthritis in the rat: The adjuvant arthritis tests in rats were carried out according to the method of Rosenthale and Nagra [Proc. Soc. exp. Biol. 125, 149 (1967)]. […] The test compound was administered once a day, starting with the day of the M. butyricum-injection, for a period of 20 days by means of an esophageal tube. […] An ED50 was determined graphically from the reduction of the swelling caused by the administration of different doses.

[3] = Acute toxicity in the rat, oral; type: in vivo; conditions: in vivo, po, per os, male and female FW 49-rats, within 14 days
Procedure: (§1) The test compound was administered in the form of a trituration in tylose.
(§2) The calculation of the LD50 values was effected, to the extent possible, according to the method of Litchfield and Wilcoxon, based on the percentage of animals which died within 14 days after administration of the different doses.

[4] = test system: platelet stickiness in human citrate blood; experiment: Morris test (platelet stickiness, retention on glass beads); type: cell-based; conditions: for inhibition at 100 µM: Platelet, 10 min, 10^-^4 mol/liter, human citrate blood, read-out: Morris test (percentage reduction in the stickiness)
Procedure: The principle of the Morris test is described in "Stoffwechsel- and Membranpermeabilitat von Erythrozyten und Thrombozyten, I. Int.
1 ml of human citrate blood was pipetted into each of a number of small test tubes, the test compound was added in the desired concentrations, and the tubes were incubated at 37° C for 10 minutes. 2 gm each of glass beads (about 100 mesh) were added to half of the tubes. The tubes, stoppered by means of a plastic plug, were attached to a vertical wheel and rotated for 45 seconds end-over-end. The same tubes were then left to stand at ambient temperature for a further hour, after which time a sedimentation of erythrocytes and glass beads had taken place. 0.01 ml of the supernatant plasma was removed and diluted with 1:800 celloscope solution. The platelet count was read in a celloscope. The percentage of the thrombocytes retained in the sediment (adhering to the glass beads or aggregating) was calculated from the difference of the thrombocyte counts with and without glass contact.
The results were expressed in terms of the percentage reduction in the stickiness compared with the control (without addition of test compound).

[5] = test system: kaolin- and carrageenin-induced edemas; experiment: Kaolin and carrageenin edema combined: average ED35 and therapeutic ratio LD50/ED35; type: in vivo; conditions: for ED35: Rattus norvegicus, read-out: Average value ED35; for Therapeutic ratio: ratio of toxic and anti-exsudative activity LD50 / ED35: oral LD50 / average ED35, rat
Procedure: (§3) The kaolin edema was induced according to the method of Hillebrecht [Arzneimittel-Forsch. 4, 607 (1954] by subplantar injection of 0.05 ml of a 10% suspension of kaolin in an aqueous 0.85% sodium chloride solution. Measurement of the thickness of the paws was effected using the technique of Doepfner and Cerletti [Int. Arch. Allergy Immunol. 12, 89 (1958)]. The test compound was administered perorally by means of an esophageal tube to male FW 49-rats having an average body weight of 120 to 150 gm 30 minutes before inducing the edema. 5 hours after the provocation of the edema, the average size of the swelling in the rats treated with the test compound was compared with the average size of the swelling in the control animals treated by a dummy procedure. By graphical extrapolation, the dose leading to a 35% reduction of the swelling (ED35) was calculated from the percentage reduction in the size of the swelling caused by the administration of different doses.
(§4) The provocation of the carrageenin edema was effected according to the method of Winter et al [Proc. Soc. exp. Biol. Med. 111, 544 (1962)] by subplantar injection of 0.05 ml of a 1% solution of carrageenin in an aqueous 0.85% solution of sodium chloride. The test compound was administered 60 minutes before the provocation of the edema.
(§5) For the calculation of the reductive effect on the edema, the size of the swelling was measured 3 hours after the provocation of the edema. All the other details were the same as described above in the case of the kaolin edema.
The therapeutic index (a measure of the therapeutic usefulness) was calculated as the quotient of the oral LD50 value and the ED35 value derived from the tests to determine the antiexsudative activity against kaolin- and carrageenininduced edemas.

[6] = test system: carrageenin-induced edema of the hind paw of the rat; experiment: Carrageenin edema of the back paw of the rat; type: in vivo; conditions: per os, 60 minutes before edema, swelling at 3 hours
Procedure: (§6) Compound A and known compound B were tested to determine their actue antiexsudative effect on the kaolin-induced edema and the carrageenin-induced edema of the hind paw of the rat and their acute toxicity after oral administration in rats.
b. Carrageenin edema of the back paw of the rat:
as §4, §5

[7] = test system: kaolin-induced edema of the hind paw of the rat; experiment: Kaolin edema of the hind paw of the rat; type: in vivo; conditions: per os, 30 minutes before edema, 35% reduction of swelling at 5 hours
Procedure: as §6
a. Kaolin edema of the hind paw of the rat:
as §3

rat = experiment: Acute toxicity in the rat, oral; type: in vivo; conditions: per os, vs compound E
Procedure: as §1, §2

[8] = Homo sapiens, 10^-^4 mol/liter, read-out: Born test (% diminution of the aggregation)
[9] = Homo sapiens, 10^-^5 mol/liter, read-out: Born test (% diminution of the aggregation)
[10] = Homo sapiens, 10^-^6 mol/liter, read-out: Born test (% diminution of the aggregation)
[11] = Homo sapiens, read-out: Born test (% diminution of the aggregation)

| Structure (SMILES) | inhibition at 100 µM [1, 8] | inhibition at 10 µM [1, 9] | inhibition at 1 µM [1, 10] | inhibition at 0.1 µM [1, 11] | 50% diminution of aggregation: times lower concentration than compound N [1] | further results |
| --- | --- | --- | --- | --- | --- | --- |
| Cc1nc(NC(=O)C2=C(O)c3ccc4ccccc4c3S(=O)(=O)N2C)sc1C [L, N-(4,5-Dimethyl-2-thiazolyl)-4-hydroxy-2-methyl-2H-naphtho[2,1-e]-1,2-thiazine-3-carboxamide-1,1-dioxide] | 91% | 95% | 88% | 15% | at least 100 times lower | – |
| CC(=O)Oc1ccccc1C(=O)O [N, acetylsalicylic acid, reference compound] | – | – | – | – | – | inhibition at 10 µM [1, 11]: 13%; inhibition at 30 µM [1, 11]: 45%; IC50 ([1]; Homo sapiens, read-out: concentration causing a 50% diminution of aggregation): ~40 µM |
| Cc1cnc(NC(=O)C2=C(O)c3ccc4ccccc4c3S(=O)(=O)N2C)s1 [K, 4-Hydroxy-2-methyl-N-(5-methyl-2-thiazolyl)-2H-naphtho[2,1-e]-1,2-thiazine-3-carboxamide-1,1-dioxide] | 89% | 97% | 66% | – | at least 20 times lower | – |
| CN1C(C(=O)Nc2cncc(Cl)n2)=C(O)c2ccc3ccccc3c2S1(=O)=O [I, N-(6-Chloro-2-pyrazinyl)-4-hydroxy-2-methyl-2H-naphtho[2,1-e]-1,2-thiazine-3-carboxamide-1,1-dioxide] | – | 91% | 91% | 22% | at least 100 times lower | – |
| Cc1ccnc(NC(=O)C2=C(O)c3ccc4ccccc4c3S(=O)(=O)N2C)c1 [H, Sodium salt of 4-hydroxy-2-methyl-N-(4-methyl-2-pyridyl)-2H-naphtho[2,1-e]-1,2-thiazine-3-carboxamide-1,1-dioxide] | 95% | 91% | 82% | – | at least 100 times lower | – |
| CCCCC1C(=O)N(c2ccccc2)N(c2ccccc2)C1=O [D, phenylbutazone, reference compound] | – | – | – | – | – | ED50 [2]: ~40 mg/kg |
| CN1C(C(=O)Nc2nccs2)=C(O)c2ccccc2S1(=O)=O [E, 4-hydroxy-2-methyl-N-(2-thiazolyl)-2H-1,2-benzothiazine-3-carboxamide-1,1-dioxide, reference compound] | – | – | – | – | – | LD50 at 336 h [3]: 136 mg/kg; inhibition at 100 µM [4]: 3%; inhibition of the stickiness in the Morris test in comparison with compound A (in words) ([4]; vs compound A): practically ineffective; inhibition at 1 µM [1, 11]: 33%; inhibition at 10 µM [1, 11]: 91%; inhibition at 100 µM [1, 11]: 92% |
| Cc1csc(NC(=O)C2=C(O)c3ccc4ccccc4c3S(=O)(=O)N2C)n1 [J, 4-Hydroxy-2-methyl-N-(4-methyl-2-thiazolyl)-2H-naphtho[2,1-e]-1,2-thiazine-3-carboxamide-1,1-dioxide] | 92% | 89% | 88% | 4% | at least 100 times lower | – |
| Cc1cccc(NC(=O)C2=C(O)c3ccc4ccccc4c3S(=O)(=O)N2C)c1 [G, 4-Hydroxy-2-methyl-N-(3-tolyl)-2H-naphtho[2,1-e]-1,2-thiazine-3-carboxamide-1,1-dioxide] | 97% | 78% | 65% | – | at least 20 times lower | – |
| CN1C(C(=O)Nc2cccc(Cl)c2)=C(O)c2ccc3ccccc3c2S1(=O)=O [F, N-(3-Chloro-phenyl)-4-hydroxy-2-methyl-2H-naphtho[2,1-e]-1,2-thiazine-3-carboxamide-1,1-dioxide] | 96% | 81% | 35% | – | at least 20 times lower | – |
| COc1ccc2c(c1)c(CC(=O)O)c(C)n2C(=O)c1ccc(Cl)cc1 [B, indomethacin, reference compound] | – | – | – | – | – | LD50 at 336 h [3]: 25.7 mg/kg; ED35 [5]: 2.8 mg/kg; Therapeutic ratio: ratio of toxic and anti-exsudative activity LD50 / ED35 [5]: 9.2; ED35 [6]: 2.9 mg/kg; ED35 [7]: 2.7 mg/kg |
| CN1C(C(=O)Nc2nccs2)=C(O)c2ccc3ccccc3c2S1(=O)=O [Compound A, 4-Hydroxy-2-methyl-N-(2-thiazolyl)-2H-naphtho[2,1-e]-1,2-thiazine-3-carboxamide-1,1-dioxide] | 96% | 95% | 92% | 65% | – | toxicity compared with compound E (in words) (rat): less toxic; LD50 at 336 h [3]: 207 mg/kg; activity against adjuvant arthritis (in words) [2]: surprisingly strong activity; ED50 [2]: < 2 mg/kg; activity against adjuvant arthritis compared with phenylbutazone (D) (in words) [2]: far superior; ED35 [5]: 12.2 mg/kg; Therapeutic ratio: ratio of toxic and anti-exsudative activity LD50 / ED35 [5]: 16.9; therapeutic ratio relative to known compound B ([5]; vs compound B (indomethacin)): twice as great; ED35 [6]: 11 mg/kg; inhibition at 100 µM [4]: 43%; 50% diminution of the aggregation: times lower concentration than compound E ([1]; vs compound E (sudoxicam)): at least 10 times lower; inhibiting effect on the thrombocyte aggregation compared with compound E (in words) ([1]; vs compound E (sudoxicam)): significantly stonger; ED35 [7]: 13.5 mg/kg |
| CN1C(C(=O)Nc2ccccn2)=C(O)c2ccc3ccccc3c2S1(=O)=O [C, 4-Hydroxy-2-methyl-N-(2-pyridyl)-2H-naphtho[2,1-e]-1,2-thiazine-3-carboxamide-1,1-dioxide] | – | – | – | – | – | activity against adjuvant arthritis (in words) [2]: surprisingly strong activity; ED50 [2]: ~4 mg/kg; activity against adjuvant arthritis compared with phenylbutazone (D) (in words) [2]: far superior |
| CCc1nc(NC(=O)C2=C(O)c3ccc4ccccc4c3S(=O)(=O)N2C)sc1C [M, N-(4-Ethyl-5-methyl-2-thiazolyl)-4-hydroxy-2-methyl-2H-naphtho[2,1-e]-1,2-thiazine-3-carboxamide-1,1-dioxide] | 94% | 91% | 79% | 24% | at least 100 times lower | – |
